Test results reported in the NIST ThermoML archive (doi:10.1016/j.jct.2017.06.013).
± gives the expanded uncertainty stated by the source.

Assay: xn = mol fraction of the nth substance listed
Settings: Liquid, Vibrating tube method

CC(C)OC(C)C [diisopropyl ether] + CCCCCCO
mass density [kg/m3]
Settings | x1 = 0.1524 | x1 = 0.3196 | x1 = 0.4906 | x1 = 0.6974 | x1 = 0.8457
293.15 K, 100 kPa | 806.7 ± 0.7 | 792.1 ± 0.7 | 776.3 ± 0.7 | 756.4 ± 0.7 | 741.2 ± 0.7
293.15 K, 500 kPa | 806.9 ± 0.7 | 792.3 ± 0.7 | 776.7 ± 0.7 | 756.8 ± 0.7 | 741.7 ± 0.7
293.15 K, 1000 kPa | 807.2 ± 0.7 | 792.7 ± 0.7 | 777.1 ± 0.7 | 757.3 ± 0.7 | 742.2 ± 0.7
293.15 K, 2000 kPa | 807.9 ± 0.7 | 793.5 ± 0.7 | 777.9 ± 0.7 | 758.3 ± 0.7 | 743.3 ± 0.7
293.15 K, 5000 kPa | 810 ± 0.7 | 795.7 ± 0.7 | 780.4 ± 0.7 | 761.1 ± 0.7 | 746.4 ± 0.7
293.15 K, 10000 kPa | 813.4 ± 0.7 | 799.5 ± 0.7 | 784.5 ± 0.7 | 765.7 ± 0.7 | 751.4 ± 0.7
293.15 K, 15000 kPa | 816.6 ± 0.7 | 803 ± 0.7 | 788.3 ± 0.7 | 770 ± 0.8 | 756.1 ± 0.8
293.15 K, 20000 kPa | 819.7 ± 0.7 | 806.4 ± 0.8 | 792 ± 0.8 | 774.1 ± 0.8 | 760.5 ± 0.8
293.15 K, 30000 kPa | 825.7 ± 0.8 | 812.8 ± 0.8 | 799 ± 0.8 | 781.7 ± 0.8 | 768.7 ± 0.8
293.15 K, 40000 kPa | 831.2 ± 0.8 | 818.6 ± 0.8 | 805.3 ± 0.8 | 788.6 ± 0.8 | 776 ± 0.8
293.15 K, 50000 kPa | 836.3 ± 0.8 | 824.1 ± 0.8 | 811.2 ± 0.8 | 795 ± 0.9 | 782.9 ± 0.9
293.15 K, 60000 kPa | 841.3 ± 0.8 | 829.4 ± 0.9 | 816.8 ± 0.9 | 801 ± 0.9 | 789.3 ± 0.9
293.15 K, 70000 kPa | 846.1 ± 0.9 | 834.5 ± 0.9 | 822.1 ± 0.9 | 806.7 ± 0.9 | 795.3 ± 1
293.15 K, 80000 kPa | 850.4 ± 0.9 | 839.1 ± 0.9 | 827.1 ± 0.9 | 812 ± 1 | 800.8 ± 1
293.15 K, 90000 kPa | 854.7 ± 0.9 | 843.6 ± 0.9 | 831.8 ± 1 | 817.1 ± 1 | 806.1 ± 1
293.15 K, 100000 kPa | 858.8 ± 0.9 | 848 ± 1 | 836.3 ± 1 | 822 ± 1 | 811.2 ± 1.1
293.15 K, 110000 kPa | 862.7 ± 1 | 852 ± 1 | 840.6 ± 1 | 826.6 ± 1.1 | 816 ± 1.1
293.15 K, 120000 kPa | 866.5 ± 1 | 856 ± 1 | 844.8 ± 1 | 830.9 ± 1.1 | 820.5 ± 1.1
293.15 K, 130000 kPa | 870.3 ± 1 | 859.9 ± 1 | 848.9 ± 1.1 | 835.2 ± 1.1 | 825 ± 1.2
293.15 K, 140000 kPa | 873.7 ± 1 | 863.5 ± 1.1 | 852.6 ± 1.1 | 839.2 ± 1.2 | 829 ± 1.2
313.15 K, 100 kPa | 791.5 ± 0.7 | 776 ± 0.7 | 759.1 ± 0.7 | 737.8 ± 0.7 | 721.4 ± 0.7
313.15 K, 500 kPa | 791.8 ± 0.7 | 776.3 ± 0.7 | 759.5 ± 0.7 | 738.2 ± 0.7 | 721.9 ± 0.7
313.15 K, 1000 kPa | 792.2 ± 0.7 | 776.7 ± 0.7 | 760 ± 0.7 | 738.8 ± 0.7 | 722.5 ± 0.7
313.15 K, 2000 kPa | 793 ± 0.7 | 777.6 ± 0.7 | 761 ± 0.7 | 739.9 ± 0.7 | 723.8 ± 0.7
313.15 K, 5000 kPa | 795.3 ± 0.7 | 780.2 ± 0.7 | 763.9 ± 0.7 | 743.3 ± 0.7 | 727.5 ± 0.7
313.15 K, 10000 kPa | 799 ± 0.7 | 784.3 ± 0.7 | 768.4 ± 0.7 | 748.4 ± 0.7 | 733.2 ± 0.7
313.15 K, 15000 kPa | 802.6 ± 0.7 | 788.2 ± 0.7 | 772.7 ± 0.8 | 753.3 ± 0.8 | 738.5 ± 0.8
313.15 K, 20000 kPa | 806 ± 0.8 | 791.9 ± 0.8 | 776.8 ± 0.8 | 757.8 ± 0.8 | 743.4 ± 0.8
313.15 K, 30000 kPa | 812.4 ± 0.8 | 798.9 ± 0.8 | 784.3 ± 0.8 | 766.2 ± 0.8 | 752.5 ± 0.8
313.15 K, 40000 kPa | 818.5 ± 0.8 | 805.4 ± 0.8 | 791.4 ± 0.8 | 773.9 ± 0.8 | 760.8 ± 0.9
313.15 K, 50000 kPa | 823.9 ± 0.8 | 811.2 ± 0.8 | 797.7 ± 0.9 | 780.9 ± 0.9 | 768.2 ± 0.9
313.15 K, 60000 kPa | 829.3 ± 0.9 | 817 ± 0.9 | 803.8 ± 0.9 | 787.5 ± 0.9 | 775.1 ± 0.9
313.15 K, 70000 kPa | 834.3 ± 0.9 | 822.3 ± 0.9 | 809.5 ± 0.9 | 793.6 ± 1 | 781.7 ± 1
313.15 K, 80000 kPa | 839 ± 0.9 | 827.3 ± 0.9 | 814.7 ± 1 | 799.3 ± 1 | 787.7 ± 1
313.15 K, 90000 kPa | 843.4 ± 0.9 | 832 ± 1 | 819.7 ± 1 | 804.6 ± 1 | 793.2 ± 1.1
313.15 K, 100000 kPa | 847.8 ± 1 | 836.6 ± 1 | 824.6 ± 1 | 809.8 ± 1.1 | 798.7 ± 1.1
313.15 K, 110000 kPa | 852 ± 1 | 841 ± 1 | 829.2 ± 1.1 | 814.6 ± 1.1 | 803.8 ± 1.1
313.15 K, 120000 kPa | 855.9 ± 1 | 845.2 ± 1 | 833.6 ± 1.1 | 819.3 ± 1.1 | 808.7 ± 1.2
313.15 K, 130000 kPa | 859.9 ± 1 | 849.2 ± 1.1 | 837.8 ± 1.1 | 823.9 ± 1.2 | 813.4 ± 1.2
313.15 K, 140000 kPa | 863.6 ± 1.1 | 853.2 ± 1.1 | 841.9 ± 1.1 | 828.2 ± 1.2 | 817.9 ± 1.2
333.15 K, 100 kPa | 775.6 ± 0.7 | 759.2 ± 0.7 | 741.1 ± 0.7 | 718.3 ± 0.7 | 700.6 ± 0.7
333.15 K, 500 kPa | 776 ± 0.7 | 759.6 ± 0.7 | 741.6 ± 0.7 | 718.8 ± 0.7 | 701.3 ± 0.7
333.15 K, 1000 kPa | 776.5 ± 0.7 | 760.1 ± 0.7 | 742.2 ± 0.7 | 719.5 ± 0.7 | 702.1 ± 0.7
333.15 K, 2000 kPa | 777.4 ± 0.7 | 761.1 ± 0.7 | 743.3 ± 0.7 | 720.8 ± 0.7 | 703.6 ± 0.7
333.15 K, 5000 kPa | 780 ± 0.7 | 764 ± 0.7 | 746.7 ± 0.7 | 724.7 ± 0.7 | 707.9 ± 0.7
333.15 K, 10000 kPa | 784.2 ± 0.7 | 768.7 ± 0.7 | 751.8 ± 0.7 | 730.6 ± 0.8 | 714.5 ± 0.8
333.15 K, 15000 kPa | 788.1 ± 0.7 | 773 ± 0.8 | 756.7 ± 0.8 | 736.1 ± 0.8 | 720.6 ± 0.8
333.15 K, 20000 kPa | 791.8 ± 0.8 | 777.1 ± 0.8 | 761.2 ± 0.8 | 741.3 ± 0.8 | 726.2 ± 0.8
333.15 K, 30000 kPa | 798.8 ± 0.8 | 784.8 ± 0.8 | 769.6 ± 0.8 | 750.7 ± 0.8 | 736.4 ± 0.8
333.15 K, 40000 kPa | 805.4 ± 0.8 | 791.9 ± 0.8 | 777.3 ± 0.8 | 759.3 ± 0.9 | 745.6 ± 0.9
333.15 K, 50000 kPa | 811.3 ± 0.8 | 798.3 ± 0.9 | 784.2 ± 0.9 | 766.8 ± 0.9 | 753.8 ± 0.9
333.15 K, 60000 kPa | 817 ± 0.9 | 804.4 ± 0.9 | 790.7 ± 0.9 | 773.8 ± 0.9 | 761.2 ± 1
333.15 K, 70000 kPa | 822.4 ± 0.9 | 810.1 ± 0.9 | 796.8 ± 0.9 | 780.5 ± 1 | 768.3 ± 1
333.15 K, 80000 kPa | 827.3 ± 0.9 | 815.4 ± 1 | 802.4 ± 1 | 786.6 ± 1 | 774.7 ± 1
333.15 K, 90000 kPa | 832.2 ± 1 | 820.4 ± 1 | 807.8 ± 1 | 792.4 ± 1.1 | 780.8 ± 1.1
333.15 K, 100000 kPa | 836.8 ± 1 | 825.3 ± 1 | 813 ± 1.1 | 797.9 ± 1.1 | 786.7 ± 1.1
333.15 K, 110000 kPa | 841.1 ± 1 | 829.8 ± 1.1 | 817.8 ± 1.1 | 803 ± 1.1 | 792 ± 1.2
333.15 K, 120000 kPa | 845.5 ± 1 | 834.4 ± 1.1 | 822.6 ± 1.1 | 808.1 ± 1.2 | 797.4 ± 1.2
333.15 K, 130000 kPa | 849.4 ± 1.1 | 838.6 ± 1.1 | 827 ± 1.2 | 812.8 ± 1.2 | 802.2 ± 1.3
333.15 K, 140000 kPa | 853.4 ± 1.1 | 842.8 ± 1.1 | – | – | –
